Results on two molecules are retold here after article PMC5967236 (Angewandte Chemie (International ed. in English), 2017).

Structures are written as SMILES.

Test [1] deals with all cellular proteins in MOLM-13 cells. Nature of the test: whole-cell lysate proteomics. Type of test: cell-based, human. To be noted: 100 nM for 2 hours.
The subject of test [2] is human AML lines (EOL-1, MOLM-13, MV4;11). Briefly: viability of human AML lines, 7 days. It counts as cell-based.
In test [3] the test system is MOLM-13. Briefly: viability of MOLM-13. Type of test: cell-based, human. The following applies: MOLM-13 transduced with wild type BRD9.
The subject of test [4] is MM.1S line. Nature of the test: activity in MM.1S line. It counts as cell-based. To be noted: multiple myelome derived line.
In test [5] the test system is IKZF family of linage specific transcription factors. Briefly: activity against IKZF family transcription factors. Type of test: cell-based.
Test [6] concerns the target BRD4 (Homo sapiens, UniProt O60885). Nature of the test: BRD4 immunoblot in MOLM-13 cells. To be noted: MOLM-13, 4hr, western blot.
The target of test [7] is T1, BRD7 (Homo sapiens, UniProt Q9NPI1).
T1 sequence (Q9NPI1 1-651): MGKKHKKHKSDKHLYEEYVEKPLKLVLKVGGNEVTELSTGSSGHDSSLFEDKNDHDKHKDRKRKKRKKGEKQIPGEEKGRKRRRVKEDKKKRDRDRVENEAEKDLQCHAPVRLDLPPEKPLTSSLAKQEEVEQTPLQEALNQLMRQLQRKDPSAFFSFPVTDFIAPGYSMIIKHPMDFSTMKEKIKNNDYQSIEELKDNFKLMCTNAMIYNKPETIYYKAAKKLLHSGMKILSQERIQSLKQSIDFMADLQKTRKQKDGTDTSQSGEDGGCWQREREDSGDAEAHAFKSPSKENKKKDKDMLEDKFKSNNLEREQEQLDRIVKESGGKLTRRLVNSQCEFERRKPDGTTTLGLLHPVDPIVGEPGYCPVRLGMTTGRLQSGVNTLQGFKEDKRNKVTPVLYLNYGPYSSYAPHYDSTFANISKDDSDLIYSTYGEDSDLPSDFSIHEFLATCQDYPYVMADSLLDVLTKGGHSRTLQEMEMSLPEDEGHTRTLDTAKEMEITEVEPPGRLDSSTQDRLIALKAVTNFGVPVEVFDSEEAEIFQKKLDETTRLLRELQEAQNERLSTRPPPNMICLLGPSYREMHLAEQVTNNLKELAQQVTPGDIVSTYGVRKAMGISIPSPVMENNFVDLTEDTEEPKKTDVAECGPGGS
Nature of the test: BRD7 immunoblot in MOLM-13 cells. The following applies: MOLM-13, 4hr, western blot.

The subject of test [8] is IKZF family of linage specific transcription factors. The following applies: cited from earlier work.

Take `COc1cc(-c2cn(C)c(=O)c3cnccc23)cc(OC)c1CN(C)CC(=O)NCCOCCOCCNc1cccc2c1C(=O)N(C1CCC(=O)NC1=O)C2=O` (stereo not shown) [dBRD9]: in test [1], the “change in BRD4 or BRD7 levels” value is recorded as “no significant change” and the “difference in levels of other proteins (99% of proteins)” value is reported as “less than 0.30 fold”. Besides, in test [2] (EOL-1, MOLM-13, MV4;11, 7 days), the “anti-proliferative effect” value is “potent anti-proliferative effect”. Besides, in test [2] (human AML lines), the “half-maximal anti-proliferative concentration” value is given as “low nanomolar”. For the same molecule, the “sensitivity with viral expression of exogenous wild type BRD9” value in test [3] is recorded as “shifted sensitivity, but to an intermediate degree”. Further, the “activity in MM.1S” value in test [4] is reported as “dBRD9 sensitive”. Besides, the “activity against IKZF family” value in test [5] is “retain activity”. In test [6], the “off target degradation activity on BRD4” value is “not detectable”. The “off target degradation activity on BRD7” value in test [7] was “not detectable”.
Consider `Cc1sc2c(c1C)C(c1ccc(Cl)cc1)=N[C@@H](CC(=O)NCCCCNC(=O)COc1cccc3c1C(=O)N(C1CCC(=O)NC1=O)C3=O)c1nnc(C)n1-2` (stereo partly shown) [dBET-1], for which the “activity against IKZF family, earlier report” value in test [8] is reported as “not previously observed”.
